Data reported in patent publication US9566290B2, “Boron-containing small molecules” (Anacor Pharmaceuticals, Inc., priority 2005, dated 2017).
Converted amounts (≈) assume the structure as drawn.

Test system: S. cerevisiae C10 resistant mutants (CDC60 editing domain mutations)
Test: MIC (NCCLS M27), spontaneous and EMS induced C10 resistant mutants
Format: cell-based, Saccharomyces cerevisiae
Conditions: for MIC: Saccharomyces cerevisiae
Method: The haploid Saccharomyces cerevisiae strain ATCC 201388 was used in the selection of C10 resistant mutants. Spontaneous and EMS-induced resistant mutants were isolated from YPD agar plates containing 4×, 8×, 16×MIC of C10. All minimal inhibitory concentrations (MIC) were determined using NCCLS protocol M27 with the exception of using YPD or synthetic defined media. All yeast and molecular genetic manipulations were essentially performed as described by Guthrie C., et al., Methods in Enzymology, 350: Part B, (2002).
Resistant mutants appeared after 2 d incubation at 30° C. Frequency of resistance was determined by dividing the number of resistant mutants by the total number of cells plated as determined by plating dilutions of the overnight culture on YPD plates.
A 2.5 mL of the overnight culture, which was grown in YPD media, was centrifuged at 700×g for 5 minutes. The cell pellet was resuspended in 10 mL 50 mM potassium phosphate buffer, pH 7.0. The cell suspension was centrifuged again and the cell pellet was resuspended in phosphate buffer to obtain a cell density of 5×10^7 cells/mL as determined by counting the cells using a Petroff Hausser Counting Chamber (Horsham, Pa. USA). The cell suspension was shaken with 300 μL of EMS (Alfa Aesar, Ward Hill, Mass., USA) for 30 min. at 30° C. The mutagenesis was stopped by adding 10% (w/v) sodium thiosulfate (Sigma-Aldrich, St. Louis, Mo., USA), and the cells were pelleted by centrifugation at 700×g for 5 min. and resuspended in 1 mL sterile H2O. This was repeated once more before the cells were plated on YPD agar plates containing 1.6 μg/mL of C10.
The minimal inhibitory concentration (MIC) was essentially performed following the NCCLS guidelines outlined in the M27 protocol with the exception of using YPD or synthetic defined media (SDM).

Compound: OB1OCc2cc(F)ccc21 [C10, 5-fluorobenzo[c][1,2]oxaborol-1(3H)-ol]
- increase in resistance (MIC) of resistant mutants over wildtype (11 C10 resistant mutants): 8-64 fold
- increased resistance over wildtype in the minimal inhibitory concentration test (23 C10 resistant mutants (Example 41)): 8-64 fold
- MIC (Table 1, mutant (A), CDC60 N415D): 4 µg/mL (≈ 26.3 µM)
- MIC (Table 1, mutant (B), CDC60 R316I): 16 µg/mL (≈ 105 µM)
- MIC (Table 1, mutant (C), CDC60 C326F): 16 µg/mL (≈ 105 µM)
- MIC (Table 1, mutant (D), CDC60 G405V): 32 µg/mL (≈ 211 µM)
- MIC (Table 1, mutant (E), CDC60 C326R): 16 µg/mL (≈ 105 µM)
- MIC (Table 1, mutant (F), CDC60 D487G): 32 µg/mL (≈ 211 µM)
- MIC (Table 1, mutant (G), CDC60 L315V): 32 µg/mL (≈ 211 µM)
- MIC (Table 1, mutant (H), CDC60 T314M): 32 µg/mL (≈ 211 µM)
- MIC (Table 1, mutant (I), CDC60 S416L): 32 µg/mL (≈ 211 µM)
- MIC (Table 1, mutant (J), CDC60 D487N): 32 µg/mL (≈ 211 µM)
- MIC (Table 1, mutant (K), CDC60 T319I): 32 µg/mL (≈ 211 µM)
- MIC (Table 2, C10 resistant mutant (C)): 16 µg/mL (≈ 105 µM)
- MIC (Table 2, C10 resistant mutant (G)): 16 µg/mL (≈ 105 µM)
- MIC (Table 2, C10 resistant mutant (H)): 16 µg/mL (≈ 105 µM)
